Where “and” joins values, the source holds several entries; their conditions need not be identical. Equal entries are not always repeated.
Columns and labels:
[1] = Most concentrated stock solution in acetone; format: physicochemical; details: clear, light yellow solution
Experimental: (§1) The test article TMMK was stored at room temperature. Acetone (CAS# 67-64-1, Fisher Scientific Co., Lot 961140) was used as the vehicle. At 20 mg per ml, which was the most concentrated stock solution which could be prepared, the test article formed a clear, light yellow solution. The test article remained a solution in all succeeding dilutions prepared for the mutagenicity assay. The maximum aliquot of acetone which can be used in the test system is 200 μl. Thus, the maximum concentration which could be tested was 4,000 μg per plate. The test article and vehicle controls were plated using a 200 μl plating aliquot. Positive control articles were plated using 50 μl plating aliquot.

[2] = based on cancer studies in rats and mice; cited from earlier work
[3] = system: Salmonella typhimurium tester strain TA98; assay: Salmonella/Mammalian-Microsome Reverse Mutation Screening Assay (Ames Test); format: cell-based; design: key to Background lawn: 1 = normal; 2 = slightly reduced; 3 = moderately reduced; 4 = extremely reduced; 5 = absent; 6 = obscured by precipitate; sp = slight precipitate; mp = moderate precipitate (requires hand count); hp = heavy precipitate (requires hand count); details: for Individual plate counts, revertants per plate: plates 1-3
Experimental: Mutagenicity can be measured by a variety of assays. The most commonly used method is the Salmonella/Mammalian-Microsome Reverse Mutation Screening Assay (Ames Test), which commonly uses four or five strains of Salmonella bacteria to detect different types of mutations.
TMMK, TEMK and MEAB were evaluated for the ability to induce reverse mutations at the histidine locus in the genome of a specific Salmonella typhimurium tester strain in the presence of an exogenous metabolic activation system of mammalian microsomal enzymes derived from Aroclor™-induced rat liver (S9). The tester strain used in the mutagenicity assay was Salmonella typhimurium tester strain TA98 with added activation. The assay was conducted using eight doses of the test article, along with the appropriate vehicle and positive controls in the presence of S9 mix (S9 homogenate was purchased from Molecular Toxicology, Inc., Annapolis, Md. 21401, Batch 0646, 43.4 mg of protein per ml). Positive controls were also plated in the absence of S9 mix. All doses of test article, vehicle, and positive controls were plated in triplicate.
as §1
The test article TEMK was stored at room temperature. Acetone (CAS# 67-64-1, Fisher Scientific Co., Lot 961140) was used as the vehicle. At 100 mg per ml, which was the most concentrated stock solution prepared, the test article formed a clear, yellow solution. The test article remained a solution in all succeeding dilutions prepared for the mutagenicity assay. The test article, vehicle controls and positive control articles were plated using a 50 μl plating aliquot.
The test article MEAB was stored at room temperature. Acetone (CAS#67-64-1, Fisher Scientific Co., Lot 961140) was used as the vehicle. At 25 mg per ml, which was the most concentrated stock solution prepared, the test article formed a clear, light yellow solution. The test article remained a solution in all succeeding dilutions prepared for the mutagenicity assay. The test article and vehicle controls were plated using a 200 μl plating aliquot. Positive control articles were plated using a 50 μl plating aliquot.
The data are presented as individual plate counts along with a mean and standard deviation.

[4] = system: Salmonella typhimurium tester strain TA98; details: strain TA98 with added mammalian metabolic activation, adequate concentrations of test material; cited from earlier work
[5] = TA98, rat liver S9, 3.33 μg/plate
[6] = TA98, rat liver S9, 10.0 μg/plate
[7] = TA98, rat liver S9, 33.3 μg/plate
[8] = TA98, rat liver S9, 100 μg/plate
[9] = TA98, rat liver S9, 333 μg/plate
[10] = TA98, rat liver S9, 1000 μg/plate
[11] = TA98, rat liver S9, 3330 μg/plate
[12] = TA98, rat liver S9, 4000 μg/plate
[13] = tester strain TA98 in the presence of S9 mix

SMILES: CN(C)c1ccc(C(=O)c2ccc(N(C)C)cc2)cc1 [TMMK, 4,4′-bis(dimethylamino)benzophenone]
- Most concentrated stock solution which could be prepared [1]: 20 mg per ml
- National Toxicology Program carcinogen listing [2]: reasonably anticipated to be a carcinogen
- Mean revertants per plate [3, 5]: 22 revertants per plate
- Individual plate counts, revertants per plate [3, 5]: 14 revertants per plate and 29 revertants per plate and 24 revertants per plate
- Mean revertants per plate [3, 6]: 16 revertants per plate
- Individual plate counts, revertants per plate [3, 6]: 9 revertants per plate and 19 revertants per plate (2×)
- Mean revertants per plate [3, 7]: 31 revertants per plate
- Individual plate counts, revertants per plate [3, 7]: 21 revertants per plate and 35 revertants per plate and 37 revertants per plate
- Mean revertants per plate [3, 8]: 17 revertants per plate
- Individual plate counts, revertants per plate [3, 8]: 16 revertants per plate and 12 revertants per plate and 22 revertants per plate
- Mean revertants per plate [3, 9]: 18 revertants per plate
- Individual plate counts, revertants per plate [3, 9]: 18 revertants per plate and 23 revertants per plate and 12 revertants per plate
- Mean revertants per plate [3, 10]: 31 revertants per plate
- Individual plate counts, revertants per plate [3, 10]: 35 revertants per plate and 26 revertants per plate and 33 revertants per plate
- Mean revertants per plate [3, 11]: 79 revertants per plate
- Individual plate counts, revertants per plate [3, 11]: 78 revertants per plate (2×) and 82 revertants per plate
- Mean revertants per plate [3, 12]: 81 revertants per plate
- Individual plate counts, revertants per plate [3, 12]: 80 revertants per plate and 70 revertants per plate and 93 revertants per plate
- Background lawn ([3]; Table 1, TA98, rat liver S9, 3.33 μg/plate): 1
- Background lawn ([3]; Table 1, TA98, rat liver S9, 10.0 μg/plate): 1
- Background lawn ([3]; Table 1, TA98, rat liver S9, 33.3 μg/plate): 1
- Background lawn ([3]; Table 1, TA98, rat liver S9, 100 μg/plate): 1 sp
- Background lawn ([3]; Table 1, TA98, rat liver S9, 333 μg/plate): 1 mp
- Background lawn ([3]; Table 1, TA98, rat liver S9, 1000 μg/plate): 1 mp
- Background lawn ([3]; Table 1, TA98, rat liver S9, 3330 μg/plate): 6 mp
- Background lawn ([3]; Table 1, TA98, rat liver S9, 4000 μg/plate): 6 mp
- Background lawn ([3]; Table 2 summary, TA98, rat liver S9, 3.33 μg/plate): 1
- Background lawn ([3]; Table 2 summary, TA98, rat liver S9, 10.0 μg/plate): 1
- Background lawn ([3]; Table 2 summary, TA98, rat liver S9, 33.3 μg/plate): 1
- Background lawn ([3]; Table 2 summary, TA98, rat liver S9, 100 μg/plate): 1 sp
- Background lawn ([3]; Table 2 summary, TA98, rat liver S9, 333 μg/plate): 1 mp
- Background lawn ([3]; Table 2 summary, TA98, rat liver S9, 1000 μg/plate): 1 mp
- Background lawn ([3]; Table 2 summary, TA98, rat liver S9, 3330 μg/plate): 6 mp
- Background lawn ([3]; Table 2 summary, TA98, rat liver S9, 4000 μg/plate): 6 mp
- Ames Test outcome (mutagenicity) [3, 13]: mutagenic
- Increase in the number of revertants per plate [3, 13]: 3.9 fold
- Ames Test outcome in the literature [4]: consistently found to have mutations
